Experimental data from patent publication US20040220121A1, “Methods for drug delivery” (priority 2003, published 2004).

How the values were obtained:
JJ5 Breast Cancer cells [1] = conditions: in vitro
Method: The EGF-^111In-labeled transferrin (0.25-80 ng) was incubated with 1.5×10^6 cells/dish JJ5 Breast Cancer (prepared from BCBM JJ5) cells in 1 mL of 0.1% human serum albumin in 35 mm multiwell culture dishes at 37° C. for 30 minutes. The cells were transferred to a centrifuge tube and centrifuged. The cell pellet was separated from the supernatant and counted in a g-scintillation counter to determine bound (B) and free (F) radioactivity. Non-specific binding was determined by conducting the assay in 100 nM hEGF. […] Internalized fraction was measured by determining the proportion of radioactivity which could not be displaced from the cell surface by 100 nM hEGF. Cell-associated binding (surface-binding and intracellular accumulation) was expressed as a percentage of medium radioactivity bound per mg of cell study protein.

JJ5 Breast Cancer cells [2] = assay: Growth inhibition assay of EGF-111In-labeled transferrin composition against JJ5 breast cancer cells; assay type: cell-based, human; conditions: 3.5 pCi/cell, cultured 4 days
Method: JJ5 breast cancer cells (prepared from BCBM JJ5) expressing approximately 10^6 epidermal growth factor receptors/cell were incubated with EGF-^111In-labeled transferrin composition, unlabeled hEGF or ^111In-oxine, centrifuged to remove free ligand, then assayed and seeded ([…]) into 35 mm culture dishes. Growth medium was added and the cells were cultured at 37° C./5% CO^2 for 4 days. The cells were then recovered by trypsinization and counted in a hemocytometer. Control dishes contained cells cultured in growth medium containing ^111In-DTPA or growth medium alone.

Row | Compound | retained by the breast cancer cells (JJ5 Breast Cancer cells [1]; 37° C.) | 111In radioactivity lost from the cells (JJ5 Breast Cancer cells [1]; over a 24 hour period at 37° C.) [%] | growth inhibition of the JJ5 cells (JJ5 Breast Cancer cells [2]) [%]
1 | EGF-^111In-labeled transferrin composition: human EGF linked via PEG3400-biotin or peptide linker to streptavidin-transferrin, transferrin labeled with 111In | at least 24 hours | < 8 | 
2 | [In+3].[O-]c1cccc2cccnc12.[O-]c1cccc2cccnc12.[O-]c1cccc2cccnc12 [^111In-oxine] |  |  | 91
